Measured values as given in publication PMC3509527, “Leucettamols, Bifunctionalized Marine Sphingoids, Act as Modulators of TRPA1 and TRPM8 Channels” (Marine Drugs, 2012).

Tests used:
Type in all cases: cell-based
[1] = biological target: T1, human recombinant TRPV1 channel (Homo sapiens, UniProt Q8NER1); test: Elevation of intracellular Ca2+ in HEK-293 cells stably transfected with TRPV1; conditions: at 10 μM
T1 construct: expressed in transfected cells; host or cells: HEK-293
Description: Assays of TRP-mediated elevation of intracellular [Ca^2+] were performed as previously described. In the current study we have used wild-type HEK293 cells, cells stably expressing rat TRPA1 or human TRPV1 or rat TRPM8. HEK-293 cells stably over-expressing recombinant rat TRPA1, rat TRPM8 or human TRPV1 were selected by G-418 (Geneticin; 600 μg·mL^−1), grown on 100 mm diameter Petri dishes as monolayers in minimum essential medium supplemented with non-essential amino acids, 10% fetal bovine serum and 2 mM glutamine, and maintained under 5% CO2 at 37 °C. […] After loading, cells were washed twice in Tyrode’s buffer (145 mM NaCl, 2.5 mM KCl, 1.5 mM CaCl2, 1.2 mM MgCl2, 10 mM D-glucose and 10 mM HEPES, pH 7.4), re-suspended in the same buffer, and transferred to the quartz cuvette of the spectrofluorimeter (λex = 488 nm; λem = 516 nm) (Perkin-Elmer LS50B equipped with PTP-1 Fluorescence Peltier System; Perkin-Elmer Life and Analytical Sciences, Waltham, MA, USA) under continuous stirring. […] Experiments were carried out at 22 °C by measuring cell fluorescence before and after the addition of various concentrations of test compounds. […] The potency of test compounds (EC50 values) was determined as the concentration of test substances required to produce half-maximal increases in [Ca^2+]i. […] Data are expressed as the concentration exerting a half-maximal inhibition of agonist effect (IC50). […]

[2] = biological target: T2, rat TRPM8 channel (Rattus norvegicus, UniProt Q8R455); test: Inhibition of icilin-induced [Ca2+]i elevation in TRPM8-HEK-293 cells; conditions: 5-min preincubation, against icilin 0.25 μM
T2 construct: expressed in transfected cells; host or cells: HEK-293
Description: (§1) Assays of TRP-mediated elevation of intracellular [Ca^2+] were performed as previously described. In the current study we have used wild-type HEK293 cells, cells stably expressing rat TRPA1 or human TRPV1 or rat TRPM8. HEK-293 cells stably over-expressing recombinant rat TRPA1, rat TRPM8 or human TRPV1 were selected by G-418 (Geneticin; 600 μg·mL^−1), grown on 100 mm diameter Petri dishes as monolayers in minimum essential medium supplemented with non-essential amino acids, 10% fetal bovine serum and 2 mM glutamine, and maintained under 5% CO2 at 37 °C. Stable expression of each channel was confirmed by real time quantitative PCR (not shown). On the day of the experiment, the cells were loaded for 1 h at 25 °C with the cytoplasmic calcium indicator Fluo-4AM (Invitrogen Carlsbad, CA, USA) 4 μM in DMSO containing 0.02% Pluronic F-127 (Invitrogen, Carlsbad, CA, USA). After loading, cells were washed twice in Tyrode’s buffer (145 mM NaCl, 2.5 mM KCl, 1.5 mM CaCl2, 1.2 mM MgCl2, 10 mM D-glucose and 10 mM HEPES, pH 7.4), re-suspended in the same buffer, and transferred to the quartz cuvette of the spectrofluorimeter (λex = 488 nm; λem = 516 nm) (Perkin-Elmer LS50B equipped with PTP-1 Fluorescence Peltier System; Perkin-Elmer Life and Analytical Sciences, Waltham, MA, USA) under continuous stirring. About 100,000 cells were used for each data point. Experiments were carried out at 22 °C by measuring cell fluorescence before and after the addition of various concentrations of test compounds. The values of the effect on [Ca^2+]i in wild-type (i.e., not transfected with any construct) HEK-293 cells were taken as baselines and subtracted from the values obtained from transfected cells. The potency of test compounds (EC50 values) was determined as the concentration of test substances required to produce half-maximal increases in [Ca^2+]i. The efficacy of the agonists on TRPA1 is expressed as a percentage of the effect obtained with 100 μM allylisothiocyanate (AITC). Antagonist/desensitizing behaviour was evaluated against icilin (0.25 μM) for TRPM8 and AITC (100 μM) for TRPA1 by adding the compounds in the quartz cuvette 5 min before stimulation of cells with agonists. Data are expressed as the concentration exerting a half-maximal inhibition of agonist effect (IC50). All determinations were at least performed in triplicate. Dose-response curves were fitted by a sigmoidal regression with variable slope. Curve fitting and parameter estimation were performed with GraphPad Prism (GraphPad Software Inc., San Diego, CA, USA).

[3] = biological target: T3, rat TRPA1 channel (Rattus norvegicus, UniProt Q6RI86); test: TRPA1 activation, fluorometric intracellular [Ca2+]i in TRPA1-HEK293 cells; conditions: for Efficacy TRPA1 (% AITC 100 μM) / EC50: rat TRPA1-HEK293 cells; for EC50: read-out: Potency EC50 TRPA1
T3 construct: expressed in transfected cells; host or cells: HEK-293
Description: as §1, with “Stable expression of each channel was confirmed by real time quantitative PCR (not shown).” left out

[4] = biological target: T3, rat TRPA1 channel; test: TRPA1 desensitization/inhibition of AITC-induced [Ca2+]i elevation in TRPA1-HEK-293 cells; conditions: 5-min preincubation, against AITC 100 μM
Description: as §1, with “Stable expression of each channel was confirmed by real time quantitative PCR (not shown).” left out

T3 sequence (Q6RI86 whole entry): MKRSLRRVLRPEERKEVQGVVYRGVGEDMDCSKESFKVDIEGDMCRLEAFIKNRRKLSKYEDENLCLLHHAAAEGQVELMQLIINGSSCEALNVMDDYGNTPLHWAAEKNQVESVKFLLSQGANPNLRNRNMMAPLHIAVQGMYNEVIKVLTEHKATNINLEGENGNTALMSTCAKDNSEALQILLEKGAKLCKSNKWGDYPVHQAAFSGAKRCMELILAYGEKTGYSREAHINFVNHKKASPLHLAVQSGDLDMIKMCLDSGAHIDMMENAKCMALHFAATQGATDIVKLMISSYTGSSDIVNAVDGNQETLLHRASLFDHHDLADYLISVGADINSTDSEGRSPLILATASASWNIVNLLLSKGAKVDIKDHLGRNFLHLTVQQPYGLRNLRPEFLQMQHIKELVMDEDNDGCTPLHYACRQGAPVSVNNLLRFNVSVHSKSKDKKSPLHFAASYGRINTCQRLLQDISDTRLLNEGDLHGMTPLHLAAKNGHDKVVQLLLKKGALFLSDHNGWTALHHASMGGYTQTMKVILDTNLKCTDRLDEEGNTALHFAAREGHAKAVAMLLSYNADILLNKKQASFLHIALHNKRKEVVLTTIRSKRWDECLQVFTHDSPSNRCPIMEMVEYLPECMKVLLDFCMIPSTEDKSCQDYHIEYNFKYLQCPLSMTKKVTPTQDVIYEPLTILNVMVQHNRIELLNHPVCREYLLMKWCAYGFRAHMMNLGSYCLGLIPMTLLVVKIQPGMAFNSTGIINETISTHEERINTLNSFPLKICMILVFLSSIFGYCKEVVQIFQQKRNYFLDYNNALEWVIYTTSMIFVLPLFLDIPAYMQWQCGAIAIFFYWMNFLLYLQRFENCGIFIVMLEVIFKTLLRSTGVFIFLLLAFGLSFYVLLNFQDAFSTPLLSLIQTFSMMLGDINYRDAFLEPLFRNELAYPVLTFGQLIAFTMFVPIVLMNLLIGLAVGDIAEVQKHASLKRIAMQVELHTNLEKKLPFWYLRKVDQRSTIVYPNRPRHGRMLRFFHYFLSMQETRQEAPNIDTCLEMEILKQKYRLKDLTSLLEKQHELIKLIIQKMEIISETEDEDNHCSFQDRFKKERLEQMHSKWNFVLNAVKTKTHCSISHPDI
T2 sequence (Q8R455 whole entry): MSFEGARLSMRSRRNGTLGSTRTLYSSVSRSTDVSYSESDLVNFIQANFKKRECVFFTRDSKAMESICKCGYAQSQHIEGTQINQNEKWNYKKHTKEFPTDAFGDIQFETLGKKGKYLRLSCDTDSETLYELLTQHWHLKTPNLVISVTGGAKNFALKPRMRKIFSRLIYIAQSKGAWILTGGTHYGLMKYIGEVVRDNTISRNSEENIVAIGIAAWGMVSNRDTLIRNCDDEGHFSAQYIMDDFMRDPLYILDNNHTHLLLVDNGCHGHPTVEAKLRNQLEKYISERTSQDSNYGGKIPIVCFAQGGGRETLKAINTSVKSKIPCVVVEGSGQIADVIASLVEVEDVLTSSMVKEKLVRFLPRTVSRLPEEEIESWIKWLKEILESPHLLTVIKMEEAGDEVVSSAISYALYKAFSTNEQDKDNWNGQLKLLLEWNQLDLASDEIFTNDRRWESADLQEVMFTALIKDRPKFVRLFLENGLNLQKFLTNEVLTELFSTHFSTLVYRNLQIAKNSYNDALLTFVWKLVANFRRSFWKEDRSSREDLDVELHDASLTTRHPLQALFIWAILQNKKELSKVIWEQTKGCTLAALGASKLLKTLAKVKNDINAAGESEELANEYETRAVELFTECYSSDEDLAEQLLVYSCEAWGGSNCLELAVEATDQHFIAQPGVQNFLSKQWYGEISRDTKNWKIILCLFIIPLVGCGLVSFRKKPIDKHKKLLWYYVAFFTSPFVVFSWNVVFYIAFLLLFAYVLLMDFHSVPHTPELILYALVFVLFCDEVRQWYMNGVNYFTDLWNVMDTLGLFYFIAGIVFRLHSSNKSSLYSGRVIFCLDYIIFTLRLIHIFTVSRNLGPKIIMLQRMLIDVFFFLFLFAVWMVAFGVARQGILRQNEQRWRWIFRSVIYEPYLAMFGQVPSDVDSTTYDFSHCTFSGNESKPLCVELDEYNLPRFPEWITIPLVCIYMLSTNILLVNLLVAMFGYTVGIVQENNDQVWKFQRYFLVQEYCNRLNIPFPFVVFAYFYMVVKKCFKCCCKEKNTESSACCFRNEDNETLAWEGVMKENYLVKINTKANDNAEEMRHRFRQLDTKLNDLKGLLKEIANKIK
T1 sequence (Q8NER1 whole entry): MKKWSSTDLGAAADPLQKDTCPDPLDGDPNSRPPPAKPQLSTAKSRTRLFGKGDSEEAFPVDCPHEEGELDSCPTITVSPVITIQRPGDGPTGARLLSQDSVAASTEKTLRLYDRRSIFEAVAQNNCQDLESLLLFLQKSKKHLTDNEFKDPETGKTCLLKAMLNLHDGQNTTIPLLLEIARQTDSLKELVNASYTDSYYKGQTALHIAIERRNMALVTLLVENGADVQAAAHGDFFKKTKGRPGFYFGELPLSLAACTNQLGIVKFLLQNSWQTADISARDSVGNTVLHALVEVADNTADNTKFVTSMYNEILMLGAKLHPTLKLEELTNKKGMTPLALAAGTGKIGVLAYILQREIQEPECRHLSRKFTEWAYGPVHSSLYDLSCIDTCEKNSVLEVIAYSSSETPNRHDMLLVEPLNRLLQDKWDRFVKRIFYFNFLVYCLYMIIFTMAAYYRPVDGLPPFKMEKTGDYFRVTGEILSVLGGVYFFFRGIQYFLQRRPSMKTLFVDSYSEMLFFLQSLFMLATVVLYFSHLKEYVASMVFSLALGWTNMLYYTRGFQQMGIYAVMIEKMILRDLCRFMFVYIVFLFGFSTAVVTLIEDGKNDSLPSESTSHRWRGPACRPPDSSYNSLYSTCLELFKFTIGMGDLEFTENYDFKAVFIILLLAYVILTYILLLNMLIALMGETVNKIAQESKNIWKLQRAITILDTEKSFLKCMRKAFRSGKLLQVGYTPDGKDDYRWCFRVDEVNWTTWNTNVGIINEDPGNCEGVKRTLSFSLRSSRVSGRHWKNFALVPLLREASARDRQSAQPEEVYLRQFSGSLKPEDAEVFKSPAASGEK

Efficacy TRPV1 (% of 4 μM ionomycin) [1] | IC50 [2] [µM] | Efficacy TRPA1 (% AITC 100 μM) [3] [% AITC 100 μM] | EC50 [3] [µM] | Reduction of efficacy at TRPA1 versus parent compound 1 [3] [%] | SMILES | IC50 [4] [µM]
78.6 ± 2.4 % of 4 μM ionomycin | – | – | – | – | COc1cc(CNC(=O)CCCC/C=C/C(C)C)ccc1O [capsaicin] | –
– | 44.6 ± 10.1 | – | – | – | CC(=O)N[C@H](C)[C@H](C/C=C\C/C=C\C/C=C\C/C=C\C/C=C\C/C=C\CCCCCC[C@H](OC(C)=O)[C@@H](C)NC(C)=O)OC(C)=O [Compound 2] | –
– | 6.4 ± 1 | 103.3 ± 10.6 | 5.9 ± 1.9 | – | C[C@@H](N)[C@@H](O)C/C=C\CC(O)/C=C/C=C\C/C=C\C/C=C\C/C=C\CCCCCC[C@H](O)[C@@H](C)N (some centres unmarked) [Leucettamol B (3), leucettamol B] | 4.7 ± 0.9
– | 65.7 ± 8.6 | – | – | – | CC(=O)N[C@H](C)[C@H](C/C=C\CC(/C=C/C=C\C/C=C\C/C=C\C/C=C\CCCCCC[C@H](OC(C)=O)[C@@H](C)NC(C)=O)OC(C)=O)OC(C)=O (some centres unmarked) [Compound 4] | –
– | 6.5 ± 0.3 | 101.9 ± 12.4 | 3.7 ± 1.7 | – | C[C@@H](N)[C@@H](O)C/C=C\C/C=C\C/C=C\C/C=C\C/C=C\C/C=C\CCCCCC[C@H](O)[C@@H](C)N [Leucettamol A (1), leucettamol A] | 4.7 ± 0.2
– | 6.5 ± 0.3 | 69.2 ± 0.1 | 2.6 ± 0.1 | 30 | C[C@@H](N)[C@@H](O)CCCCCCCCCCCCCCCCCCCCCCCC[C@H](O)[C@@H](C)N [Compound 5] | 6.5 ± 0.4
– | 29 ± 0.6 | 100.0 ± 9.7 | 9.7 ± 3.3 | – | CC(=O)N[C@H](C)[C@H](CCCCCCCCCCCCCCCCCCCCCCCC[C@H](OC(C)=O)[C@@H](C)NC(C)=O)OC(C)=O [Compound 6] | 12.7 ± 0.8
